Each block holds one compound with its values, some of them ahead of it.
Assay: method code SF-HPLC, from Li, N. Y., Li, Y., & Gorrod, J. W. (1992). Determination of partition coefficients and ionisation constants of(S)(-)-nicotine and certain metabolites. Med. Sci. Res., 20(23)901-902.

SMILES: CN1C(=O)C(O)CC1c1cccnc1 (centres undefined)
logD (pH 7.4): -1.22

SMILES: CN1C(=O)CC[C@H]1c1cccnc1
logD (pH 7.4): 0.07

SMILES: O=C1CCC(c2ccc[n+]([O-])c2)N1 (centres undefined)
logD (pH 12.0): -1.01

SMILES: O=C1CC[C@@H](c2cccnc2)N1
logD (pH 12.0): -0.4

SMILES: CN1C(=O)CCC1c1ccc[n+]([O-])c1 (centres undefined)
logD (pH 7.4): -2.54

Second part, the compound after the results:

logD (pH 7.4): -0.13
SMILES: CNC(=O)CCC(=O)c1cccnc1

logD (pH 2.0): -2.42
SMILES: O=C(O)Cc1cccnc1

logD (pH 12.0): -0.57
SMILES: CN1C(=O)CCC1(O)c1cccnc1 (centres undefined)

logD (pH 2.0): -1.06
SMILES: O=C(O)CCC(=O)c1cccnc1
